From patent US4366162A, “Aryl ethers of N-alkyl-piperidines and acid addition salts thereof” (AB Ferrosan, priority 1977, dated 1982)
Converted amounts (≈) assume the structure as drawn. Where two headings read alike, the source gives them in different places.

How the values were obtained:
[1] = tested on: amphetamine induced behavioural stereotypies; experiment: Anti-amphetamine test: inhibition of compulsory gnawing and chewing responses to amphetamine; assay type: in vivo, Sprague Dawley female rats; settings: Rattus norvegicus, sc, read-out: ED50, Anti-amphetamine test
Experimental: Conventional types of neuroleptics are potent inhibitors of amphetamine induced behavioural stereotypies. One determines in Sprague Dawley female rats the ability of subcutaneously administered compounds to inhibit compulsory gnawing and chewing responses to a subcutaneous dose of 10 mg/kg of amphetamine administered half an hour after the compound to be tested. The new compounds of formula I are weak antagonists in this test.
(§1) The ED50 -values expressed in milligrams per kilogram body weight in the anti-amphetamine test, in the anti-apomorphine test and in the inhibition of aggression test are presented in Table I.

[2] = tested on: histamine induced contraction of guinea pig ileum; experiment: Antihistaminic activity: histamine induced contraction of guinea pig ileum; settings: histamine 0.2 μg/ml, 50% inhibition of the contraction
[3] = tested on: acetylcholine induced contraction of guinea pig ileum; experiment: Anticholinergic activity: acetylcholine induced contraction of guinea pig ileum; settings: acetylcholine 0.02 μg/ml, 50% inhibition of the contraction
[4] = tested on: apomorphine induced emesis; experiment: Anti-apomorphine test: antagonism of apomorphine induced emesis; assay type: in vivo, dogs; settings: Canis lupus familiaris, sc, read-out: ED50, Anti-apomorphine test
Experimental: All typical chloropromazine-like neuroleptics are powerful antagonists of apomorphine induced emesis in dogs by virtue of their blocking action on the chemo-emetic trigger zone. The compounds listed in Table I were administered subcutaneously. The animals were challenged half an hour after subcutaneous administration with a standard dose of 0.06 mg/kg of apomorphine hydrochloride (subcutaneously). […] The ED50 -values expressed in milligrams per kilogram body weight in the anti-amphetamine test, in the anti-apomorphine test and in the inhibition of aggression test are presented in Table I.

[5] = tested on: serotonin induced contraction of the rat ileum; experiment: Antiserotoninergic activity: serotonin induced contraction of the rat ileum; settings: serotonin 220 ng/ml, 50% inhibition of the contraction
Experimental: They show antiserotoninergic activity evaluated from the effects on serotonin (220 ng/ml) induced contraction of the rat ileum.

[6] = tested on: isolation induced aggressive behaviour; experiment: Isolation induced aggressive behaviour test (inhibition of aggression); assay type: in vivo, Male albino mice; settings: Mus musculus, sc, 1 h, read-out: ED50, Inhibition aggression test
Experimental: Male albino mice were used. Tests were conducted 60 minutes after subcutaneous drug administration.
as §1

[7] = male albino mice, 60 minutes after subcutaneous administration

SMILES: CN(C)CCCN1c2ccccc2Sc2ccc(Cl)cc21 [Chlorpromazine, chlorpromazine]
- ED50 [1]: 1.2 mg/kg
- ED50, Antihistaminic activity [2]: 0,03 μg/ml
- ED50, Anticholinergic activity [3]: 1,7 μg/ml
- ED50 [4]: 0.7 mg/kg
- ED50, Antiseroto-ninergic activity [5]: 6 µg/mL (≈ 18.8 µM)
- ED50 [6]: 0.4 mg/kg

SMILES: O=C(CCCN1CCC(O)(c2ccc(Cl)cc2)CC1)c1ccc(F)cc1 [Haloperidol, haloperidol]
- ED50 [1]: 0.03 mg/kg
- ED50 [6]: 0.8 mg/kg

SMILES: COc1cc(C(C)=O)ccc1OCCCN1CCC(O)(C(=O)c2ccc(F)cc2)CC1 [I, 1-[3-(p-acetyl-o-methoxyphenoxy)-propyl]-4-(p-fluorobenzoyl)-4-hydroxypiperidine]
- ED50 ([1]; rats, subcutaneous, half an hour before 10 mg/kg amphetamine s.c.): 20 mg/kg
- ED50, Antihistaminic activity [2]: 0,06 μg/ml
- ED50, Anticholinergic activity [3]: > 100 µg/mL
- ED50 ([4]; dogs, subcutaneous, half an hour before 0.06 mg/kg apomorphine hydrochloride s.c.): 7.1 mg/kg
- ED50, Antiseroto-ninergic activity [5]: 0,1 μg/ml
- ED50 [6, 7]: 0.5 mg/kg

SMILES: CCC(=O)OC1(C(=O)c2ccc(F)cc2)CCN(CCCOc2ccc(C(C)=O)cc2OC)CC1 [III]
- ED50 [6, 7]: 2 mg/kg

SMILES: COc1cc(C(C)=O)ccc1OCCCCN1CCC(O)(C(=O)c2ccc(F)cc2)CC1 [II]
- ED50 [6, 7]: 1.5 mg/kg
